Data on eleven compounds can be found in patent publication US8778941B2, “TRPM8 antagonists and their use in treatments” (AMGEN Inc., priority 2011, dated 2014).

pIC50: −log10 of the molar value.

The target in the assay is T1, human TRPM8 (Homo sapiens, UniProt Q7Z2W7).
T1 construct: expressed in transfected cells; host or cells: Chinese hamster ovary (CHO) cells, T-REx tetracycline-inducible expression system (Invitrogen), co-transfected with pcDNA3.1 jellyfish aequorin
Kind of assay: Luminescence readout assay for measuring intracellular calcium (aequorin), hTRPM8 antagonism. The assay is classed as cell-based. Conditions: CHO cell line expressing human TRPM8 and aequorin; activation by icilin, L-menthol or cold buffer (table does not say which).

T1 sequence (Q7Z2W7 whole entry): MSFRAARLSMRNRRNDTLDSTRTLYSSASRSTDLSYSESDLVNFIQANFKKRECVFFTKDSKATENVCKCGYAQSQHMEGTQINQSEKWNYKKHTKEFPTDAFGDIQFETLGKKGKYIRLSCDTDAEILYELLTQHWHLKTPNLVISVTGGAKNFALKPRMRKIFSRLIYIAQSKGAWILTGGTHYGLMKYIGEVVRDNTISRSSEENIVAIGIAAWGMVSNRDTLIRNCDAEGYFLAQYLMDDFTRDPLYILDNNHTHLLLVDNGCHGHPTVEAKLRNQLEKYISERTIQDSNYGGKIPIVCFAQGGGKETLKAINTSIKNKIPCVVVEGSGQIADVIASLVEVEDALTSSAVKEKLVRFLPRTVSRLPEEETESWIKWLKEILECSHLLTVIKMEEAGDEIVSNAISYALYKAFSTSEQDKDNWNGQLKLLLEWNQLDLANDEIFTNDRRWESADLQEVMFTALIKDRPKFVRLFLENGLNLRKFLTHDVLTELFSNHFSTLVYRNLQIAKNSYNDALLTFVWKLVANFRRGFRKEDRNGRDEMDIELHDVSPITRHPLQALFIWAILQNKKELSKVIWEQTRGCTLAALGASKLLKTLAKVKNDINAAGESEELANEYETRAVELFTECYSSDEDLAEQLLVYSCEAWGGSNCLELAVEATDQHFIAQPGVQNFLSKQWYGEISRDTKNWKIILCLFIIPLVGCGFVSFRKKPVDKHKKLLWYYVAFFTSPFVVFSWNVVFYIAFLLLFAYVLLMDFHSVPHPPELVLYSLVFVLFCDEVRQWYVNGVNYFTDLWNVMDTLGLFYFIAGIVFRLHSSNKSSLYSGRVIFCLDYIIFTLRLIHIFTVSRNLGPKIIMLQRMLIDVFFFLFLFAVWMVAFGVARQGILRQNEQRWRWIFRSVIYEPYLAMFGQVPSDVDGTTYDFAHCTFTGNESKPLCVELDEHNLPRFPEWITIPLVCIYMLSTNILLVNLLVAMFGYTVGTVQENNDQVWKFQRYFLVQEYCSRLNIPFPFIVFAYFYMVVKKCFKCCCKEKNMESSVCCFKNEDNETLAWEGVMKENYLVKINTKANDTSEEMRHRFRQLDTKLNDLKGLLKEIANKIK

The pIC50 is the negative decadic logarithm of the IC50, by convention in mol/L. Turning to `O=C(NCC1CCCCC1)N[C@@H](c1ccc(C(F)(F)F)cc1)c1ncccc1C(F)(F)F` [Example 127, (S)-1-(cyclohexyl-methyl)-3-((4-(trifluoro-methyl)-phenyl)(3-(trifluoro-methyl)-pyridin-2-yl)-methyl)urea (2,2,2-trifluoro-acetate)], the pIC50 was 6.18.

Consider `COc1cccc([C@@H](C)NC(=O)N[C@@H](c2ccc(C(F)(F)F)cc2)c2ncccc2C(F)(F)F)c1` [Example 128, 1-((R)-1-(3-methoxy-phenyl)ethyl)-3-((S)-(4-(trifluoro-methyl)-phenyl)(3-(trifluoro-methyl)-pyridin-2-yl)-methyl)urea (2,2,2-trifluoro-acetate)], for which the pIC50 was 5.39. With `O=C(N[C@@H](c1ccc(C(F)(F)F)cc1)c1ncccc1C(F)(F)F)N[C@H]1CCc2ccccc21` [Example 129, 1-((S)-2,3-dihydro-1H-inden-1-yl)-3-((S)-(4-(trifluoro-methyl)-phenyl)(3-(trifluoro-methyl)-pyridin-2-yl)-methyl)urea (2,2,2-trifluoro-acetate)], the negative-log IC50 (pIC50) was 5.70. `COc1ccc([C@@H](C)NC(=O)N[C@@H](c2ccc(C(F)(F)F)cc2)c2ncccc2C(F)(F)F)cc1` [Example 130, 1-((R)-1-(4-methoxy-phenyl)ethyl)-3-((S)-(4-(trifluoro-methyl)-phenyl)(3-(trifluoro-methyl)-pyridin-2-yl)-methyl)urea (2,2,2-trifluoro-acetate)]: the pIC50 is 5.42.

As to `CC(C)(C)CC(C)(C)NC(=O)N[C@@H](c1ccc(C(F)(F)F)cc1)c1ncccc1C(F)(F)F` [Example 131, (S)-1-((4-(trifluoro-methyl)-phenyl)(3-(trifluoro-methyl)-pyridin-2-yl)-methyl)-3-(2,4,4-trimethylpentan-2-yl)urea (2,2,2-trifluoro-acetate)], the pIC50 is 6.18. As to `O=C(NCCc1c(Cl)cccc1Cl)N[C@@H](c1ccc(C(F)(F)F)cc1)c1ncccc1C(F)(F)F` [Example 132, (S)-1-(2,6-dichlorophen-ethyl)-3-((4-(trifluoro-methyl)-phenyl)(3-(trifluoro-methyl)-pyridin-2-yl)-methyl)urea (2,2,2-trifluoro-acetate)], the pIC50 is 6.17.

As for `CCOc1ccccc1CNC(=O)N[C@@H](c1ccc(C(F)(F)F)cc1)c1ncccc1C(F)(F)F` [Example 133, (S)-1-(2-ethoxybenzyl)-3-((4-(trifluoro-methyl)-phenyl)(3-(trifluoro-methyl)-pyridin-2-yl)-methyl)urea (2,2,2-trifluoro-acetate)], the pIC50 was 5.80.

With `O=C(NCc1ccc(Cl)cc1)N[C@@H](c1ccc(C(F)(F)F)cc1)c1ncccc1C(F)(F)F` [Example 134, (S)-1-(4-chlorobenzyl)-3-((4-(trifluoro-methyl)-phenyl)(3-(trifluoro-methyl)-pyridin-2-yl)-methyl)urea (2,2,2-trifluoro-acetate)], the pIC50 is 5.97. Consider `O=C(NCc1ccc(Cl)cc1Cl)N[C@@H](c1ccc(C(F)(F)F)cc1)c1ncccc1C(F)(F)F` [Example 135, (S)-1-(2,4-dichlorobenzyl)-3-((4-(trifluoro-methyl)-phenyl)(3-(trifluoro-methyl)-pyridin-2-yl)-methyl)urea (2,2,2-trifluoro-acetate)], for which the pIC50 is 6.08. On to `COC(=O)[C@H](Cc1ccccc1)NC(=O)N[C@@H](c1ccc(C(F)(F)F)cc1)c1ncccc1C(F)(F)F` [Example 136, (S)-methyl 3-phenyl-2-(3-((S)-(4-(trifluoro-methyl)-phenyl)(3-(trifluoro-methyl)-pyridin-2-yl)-methyl)-ureido)-propanoate (2,2,2-trifluoro-acetate)], for which the pIC50 is 5.39. The same measure for `CSc1ccccc1NC(=O)N[C@@H](c1ccc(C(F)(F)F)cc1)c1ncccc1C(F)(F)F` [Example 137, (S)-1-(2-(methylthio)-phenyl)-3-((4-(trifluoro-methyl)-phenyl)(3-(trifluoro-methyl)-pyridin-2-yl)-methyl)urea (2,2,2-trifluoro-acetate)]: 6.81.
